Laboratory results: ChEMBL document CHEMBL5505992, “Novel membrane-targeting isoxanthohumol-amine conjugates for combating methicillin-resistant Staphylococcus aureus (MRSA) infections” (Eur J Med Chem, 2024)
Active and inactive are the calls of the source. The rule behind the calls is not given here.

Experiments:
Staphylococcus aureus [1] = test: Bactericidal activity against methicillin-resistant Staphylococcus aureus clinical isolate MRSA-16 assessed as bacterial killing measured upto 8 hrs by time kill assay; type: functional, organism-based
Staphylococcus aureus [2] = test: Bactericidal activity against Staphylococcus aureus ATCC 29213 assessed as bacterial killing measured upto 8 hrs by time kill assay; type: functional, organism-based
Staphylococcus aureus [3] = test: Induction of morphological changes in methicillin-resistant Staphylococcus aureus clinical isolate MRSA-16 assessed as appearance of uneven cell surface at 16 ug/ml incubated for 4 hrs by SEM analysis; type: functional, organism-based; details: dose 16.0 µg/ml
Cell membrane [4] = test: Induction of cell membrane depolarization in methicillin-resistant Staphylococcus aureus clinical isolate MRSA-16 assessed as increase in fluorescence intensity measured after 10 mins by DISC3(5) staining based analysis; type: cell membranes; details: dose 8-32 µg/ml
Cell membrane [5] = test: Induction of cell membrane permeability in methicillin-resistant Staphylococcus aureus clinical isolate MRSA-16 assessed as dead cells (Q1 region) at 4 ug/ml incubated for 2 hrs by SYTO 9 and PI staining based flow cytometry analysis (reference value: 0.00%); type: cell membranes; details: dose 4.0 µg/ml
Cell membrane [6] = test: Induction of cell membrane permeability in methicillin-resistant Staphylococcus aureus clinical isolate MRSA-16 assessed as dead cells (Q1 region) at 64 ug/ml incubated for 2 hrs by SYTO 9 and PI staining based flow cytometry analysis (reference value: 0.00%); type: cell membranes; details: dose 64.0 µg/ml
Cell membrane [7] = test: Induction of cell membrane permeability in methicillin-resistant Staphylococcus aureus clinical isolate MRSA-16 assessed as decrease in intact cells (Q3 region) at 16 ug/ml incubated for 2 hrs by SYTO 9 and PI staining based flow cytometry analysis (reference value: 99.07%); type: cell membranes; design: scale not given: the % may be the effect or the level left; details: dose 16.0 µg/ml
Cell membrane [8] = test: Induction of cell membrane permeability in methicillin-resistant Staphylococcus aureus clinical isolate MRSA-16 assessed as increase in damaged cells (Q2 region) at 32 ug/ml incubated for 2 hrs by SYTO 9 and PI staining based flow cytometry analysis (reference value: 0.91%); type: cell membranes; details: dose 32.0 µg/ml
Staphylococcus aureus [9] = test: Antibacterial activity against methicillin-resistant Staphylococcus aureus in presence of peptidoglycan; type: functional
Staphylococcus aureus [10] = test: Antibacterial activity against methicillin-resistant Staphylococcus aureus in presence of phosphatidylethanolamine; type: functional, organism-based
Cell membrane [11] = test: Disruption of cell membrane in methicillin-resistant Staphylococcus aureus clinical isolate MRSA-16 assessed as fold increase in intracellular ROS production at 64 ug/ml measured after 40 mins by DCFH-DA dye based fluorescence assay; type: cell membranes; details: dose 64.0 µg/ml
[12] = Cytotoxicity against human L02 cells assessed as cell viability at <=16 ug/ml by CCK-8 method relative to control; type: toxicity, cell-based; details: up to 16 µg/mL, read-out: Activity
[13] = Toxicity in Kunming mouse assessed as survival rate at 80 mg/kg, sc measured after 24 hrs relative to control; type: organism-based; details: in vivo
[14] = Toxicity in Kunming mouse assessed as survival rate at 40 mg/kg, sc measured after 24 hrs relative to control; type: organism-based; details: in vivo
[15] = Toxicity in Kunming mouse assessed as redness in back of skin at 20 mg/kg, sc measured after 24 hrs; type: organism-based; details: in vivo
[16] = Toxicity in Kunming mouse assessed as swelling in back of skin at 20 mg/kg, sc measured after 24 hrs; type: organism-based; details: in vivo
[17] = Toxicity in Kunming mouse assessed as effect on liver at 10 mg/kg, sc measured after 24 hrs by H and E staining based analysis; type: organism-based; details: in vivo
[18] = Toxicity in Kunming mouse assessed as effect on lung at 10 mg/kg, sc measured after 24 hrs by H and E staining based analysis; type: organism-based; details: in vivo
[19] = Toxicity in Kunming mouse assessed as histopathological abnormalities in liver at 10 mg/kg, sc measured after 24 hrs by H and E staining based analysis; type: organism-based; details: in vivo
[20] = Toxicity in Kunming mouse assessed as histopathological abnormalities in spleen at 10 mg/kg, sc measured after 24 hrs by H and E staining based analysis; type: organism-based; details: in vivo
[21] = Toxicity in Kunming mouse assessed as histopathological abnormalities in kidney at 10 mg/kg, sc measured after 24 hrs by H and E staining based analysis; type: organism-based; details: in vivo
Staphylococcus aureus [22] = test: Antibacterial activity against methicillin-resistant Staphylococcus aureus infected in Kunming mouse skin infection model assessed as effect on skin lesions in subcutaneous tissue at 8 mg/kg,sc measured after 24 hrs; type: functional, organism-based
Staphylococcus aureus [23] = test: Antibacterial activity against methicillin-resistant Staphylococcus aureus infected in Kunming mouse skin infection model assessed as effect on skin abscesses in subcutaneous tissue at 8 mg/kg,sc measured after 24 hrs; type: functional, organism-based
Staphylococcus aureus [24] = test: Antibacterial activity against methicillin-resistant Staphylococcus aureus infected in Kunming mouse skin infection model assessed as reduction in inflammatory cells at 4 to 8 mg/kg,sc measured after 24 hrs; type: functional, organism-based; details: dose 4-8 mg/kg
Staphylococcus aureus [25] = test: Antibacterial activity against methicillin-resistant Staphylococcus aureus infected in Kunming mouse skin infection model assessed as decrease in bacterial load at 4 mg/kg,sc measured after 24 hrs relative to control; type: functional; design: scale not given: the % may be the effect or the level left
Staphylococcus aureus [26] = test: Antibacterial activity against methicillin-resistant Staphylococcus aureus infected in Kunming mouse skin infection model assessed as decrease in bacterial load at 8 mg/kg,sc measured after 24 hrs; type: functional
[27] = Toxicity in Kunming mouse assessed as effect on spleen at 4 to 8 mg/kg, sc measured after 24 hrs by H and E staining based analysis; type: organism-based; details: in vivo, dose 4-8 mg/kg
[28] = Toxicity in Kunming mouse assessed as effect on kidney at 4 to 8 mg/kg, sc measured after 24 hrs by H and E staining based analysis; type: organism-based; details: in vivo, dose 4-8 mg/kg
[29] = Toxicity in Kunming mouse assessed as histopathological abnormalities in heart at 4 to 8 mg/kg, sc measured after 24 hrs by H and E staining based analysis; type: organism-based; details: in vivo, dose 4-8 mg/kg
[30] = Toxicity in Kunming mouse assessed as histopathological abnormalities in liver at 4 to 8 mg/kg, sc measured after 24 hrs by H and E staining based analysis; type: organism-based; details: in vivo, dose 4-8 mg/kg
[31] = Toxicity in Kunming mouse assessed as histopathological abnormalities in spleen at 4 to 8 mg/kg, sc measured after 24 hrs by H and E staining based analysis; type: organism-based; details: in vivo, dose 4-8 mg/kg
[32] = Toxicity in Kunming mouse assessed as histopathological abnormalities in lung at 4 to 8 mg/kg, sc measured after 24 hrs by H and E staining based analysis; type: organism-based; details: in vivo, dose 4-8 mg/kg
Staphylococcus aureus [33] = test: Antibacterial activity against methicillin-resistant Staphylococcus aureus clinical isolate MRSA-16 measured after 16 to 18 hrs by CLSI method; type: functional; details: time 16-18 hrs
Staphylococcus aureus [34] = test: Antibacterial activity against methicillin-resistant Staphylococcus aureus clinical isolate MRSA-17 measured after 16 to 18 hrs by CLSI method; type: functional; details: time 16-18 hrs
Staphylococcus aureus [35] = test: Antibacterial activity against methicillin-resistant Staphylococcus aureus clinical isolate MRSA-21 measured after 16 to 18 hrs by CLSI method; type: functional; details: time 16-18 hrs
Staphylococcus aureus [36] = test: Antibacterial activity against methicillin-resistant Staphylococcus aureus clinical isolate MRSA-22 measured after 16 to 18 hrs by CLSI method; type: functional; details: time 16-18 hrs
[37] = Selectivity index, ratio of HC50 for hemolytic activity in sheep erythrocytes to MIC for antibacterial activity against Staphylococcus aureus ATCC 29213; type: toxicity, cell-based; details: read-out: Selectivity Index

## CCCC[N+](C)(CCCC)CCCCCOc1ccc(C2CC(=O)c3c(OC)cc(OCCCCC[N+](C)(CCCC)CCCC)c(CC=C(C)C)c3O2)cc1.[I-].[I-] (configuration not stated)
Staphylococcus aureus [1]
  Activity: Dose-Dependent Effect
Staphylococcus aureus [2]
  Activity: Dose-Dependent Effect
Staphylococcus aureus [3]
  Activity: Active
Cell membrane [4]
  Activity: Dose-Dependent Effect
Cell membrane [5]
  Activity: 0.44%
Cell membrane [6]
  Activity: 100%
Cell membrane [7]
  Activity: 1.58%
Cell membrane [8]
  Activity: 0.79%
Staphylococcus aureus [9]
  MIC: 32 µg/mL
Staphylococcus aureus [10]
  Activity: Active
Cell membrane [11]
  fold change (FC): 4
[12]
  viability: 100%
[13]
  survival at 24 h: 40%
[14]
  survival at 24 h: 80%
[15]
  Activity: Toxic
[16]
  Activity: Toxic
[17]
  Activity: Non-Toxic
[18]
  Activity: Non-Toxic
[19]
  Activity: Non-Toxic
[20]
  Activity: Non-Toxic
[21]
  Activity: Non-Toxic
Staphylococcus aureus [22]
  Activity: inactive
Staphylococcus aureus [23]
  Activity: inactive
Staphylococcus aureus [24]
  Activity: Active
Staphylococcus aureus [25]
  Activity: 99.86%
Staphylococcus aureus [26]
  Activity: 5 log10CFU/g
[27]
  Activity: Non-Toxic
[28]
  Activity: Non-Toxic
[29]
  Activity: Non-Toxic
[30]
  Activity: Non-Toxic
[31]
  Activity: Non-Toxic
[32]
  Activity: Non-Toxic
Staphylococcus aureus [33]
  MIC: 0.25 µg/mL
Staphylococcus aureus [34]
  MIC: 0.25 µg/mL
Staphylococcus aureus [35]
  MIC: 0.25 µg/mL
Staphylococcus aureus [36]
  MIC: 1 µg/mL
[37]
  selectivity ratio: > 1280
